Four molecules from ChEMBL document CHEMBL3244372, “Cholecystokinin (pancreozymin). 3. Synthesis and properties of an analogue of the C-terminal heptapeptide with serine sulfate replacing tyrosine sulfate” (1977) can be followed below.

Calls of active or inactive are those of the source. The calls are words filed in the database; no cut-off is given here. Square brackets hold non-standard residues; d marks the D form. Peptide text beside a SMILES is read from it. sY = N[C@@H](Cc1ccc(OS(=O)(=O)O)cc1)C(=O)O

For experiment [1], the species on record is Cavia porcellus. Briefly: Increase in [Ca2+] efflux from guinea pig pancreatic acinar cells measured for 5 mins relative to control. It counts as functional.
The nature of experiment [2]: Increase in [Ca2+] efflux from guinea pig pancreatic acinar cells at 10^-8 M assessed per minute relative to control. It is filed as functional, Cavia porcellus.
The species named for experiment [3] is Cavia porcellus. Briefly: Increase in [Ca2+] efflux from guinea pig pancreatic acinar cells at 3 x 10^-11 M measured for 5 mins relative to control. It is filed as functional.

Regarding `CSCC[C@H](NC(=O)[C@H](Cc1c[nH]c2ccccc12)NC(=O)CNC(=O)[C@H](CCSC)NC(=O)[C@@H](N)CO)C(=O)N[C@@H](CC(=O)O)C(=O)N[C@@H](Cc1ccccc1)C(N)=O` (H-SMGWMDF-NH2), in the experiment filed under Cavia porcellus [1], the result was Active.

On to `CSCC[C@H](NC(=O)[C@H](Cc1c[nH]c2ccccc12)NC(=O)CNC(=O)[C@H](CCSC)NC(=O)[C@@H](N)COS(=O)(=O)O)C(=O)N[C@@H](CC(=O)O)C(=O)N[C@@H](Cc1ccccc1)C(N)=O`, for which the result in the experiment listed under Cavia porcellus [1] was Active.

On to `CSCC[C@H](NC(=O)[C@H](Cc1c[nH]c2ccccc12)NC(=O)CNC(=O)[C@H](CCSC)NC(=O)[C@@H](N)Cc1ccc(OS(=O)(=O)O)cc1)C(=O)N[C@@H](CC(=O)O)C(=O)N[C@@H](Cc1ccccc1)C(N)=O` (H-[sY]MGWMDF-NH2), for which the Activity in experiment [2] is recorded as 26.2%. The result in the experiment listed under Cavia porcellus [1] and in the experiment filed under Cavia porcellus [3] was Active.

In the case of `CSCC[C@H](NC(=O)[C@H](Cc1c[nH]c2ccccc12)NC(=O)CNC(=O)[C@H](CCSC)NC(=O)[C@@H](N)Cc1ccc(O)cc1)C(=O)N[C@@H](CC(=O)O)C(=O)N[C@@H](Cc1ccccc1)C(N)=O` (H-YMGWMDF-NH2), the outcome in the experiment filed under Cavia porcellus [1] was Active.
